According to patent US20240425478A1, “CYCLOPENTYLPYRAZOLE CDK2 INHIBITORS” (Genentech, Inc., priority 2021, published 2024):
pIC50, pKi: −log10 of the molar value. Read-outs that look alike come from different tables or passages of the source.

Key:
SKOV-3 (ATCC HTB-77) = assay: SKOV-3 EdU incorporation cell proliferation assay (CDK4/6-dependent); type: cell-based; conditions: Homo sapiens, cellular assay, read-out: CDK4/6 SKOV-3 IC50
Procedure, shortened: (§1)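 Cells in RPMI/10% FBS dosed with compound (0.5% DMSO final) for 16 h at 37 °C, 5% CO2, then EdU 0.5 μM final for 8 h before fixation and imaging. IC50 from 4-parameter logistic fit of EdU-positive cell fraction versus dose.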

HCT116 cells = assay: p-H3 HCT-116 mitotic release cell proliferation assay (cellular CDK1); type: cell-based; conditions: Homo sapiens, HCT-116; Table O, cellular assay; read-out: CDK1 p-H3 IC50
Description: Inhibition of cellular CDK1 determined by release of cells from nocodazole-induced mitotic arrest, as measured by decrease in phospho-Histone H3. Histone H3 (Ser 10) level is detected in cell lysates by producing a Fluorescence Resonance Energy Transfer (FRET) signal between two antibodies, Phospho-Histone H3 Cryptate (acting as the donor) and Phospho-Histone H3 d2 (acting as the acceptor).
Plates are allowed to rest overnight at 37° C./5% CO2. The following morning, nocodazole is diluted in complete medium, and 5 μL is added to each test well and positive control well for a final concentration of 500 nM. Plates are then incubated for 16 hours at 37° C./5% CO2. […] 10 μL of diluted compound is then transferred to the cell plate (final DMSO concentration 0.1%). Cell plates are then incubated for 4 hours in 37° C. 5% CO2. A cell lysis buffer is prepared on ice using reagents from the Phospho-Histone H3 (Ser10) cellular kit (Cisbio-64HH3PEG). Supernatant is discarded from the cell plate and 80 μL of the supplemented cell lysis buffer (1:99 dilution of the Blocking Reagent and the 1× cell lysis buffer provided in the kit) is added to each of the experimental wells. The cell lysis reaction is allowed to proceed at room temperature while shaking vigorously for 30 minutes. The 384-well HTRF (Homogeneous Time Resolved Fluorescence) plate is prepared by adding 2 μL of each diluted antibody (Phospho-Histone H3 Cryptate antibody and Phospho-Histone H3 d2 antibody diluted 19:1 in a detection buffer) and 12 μL of the supplemented cell lysis buffer to each well in the HTRF plate. 4 μL of the cell lysate is added to the prepared HTRF plate which is then sealed and the reaction is allowed to proceed for a minimum of 2 hours at room temperature.

[1] = test system: OVISE (JCRB1043, CCNE1-amplified); assay: OVISE EdU incorporation cell proliferation assay (CDK2-dependent); type: cell-based; conditions: for pIC50: cellular assay, read-out: CDK2 OVISE IC50; for FS SKOV-3/OVISE / FS p-H3/OVISE: fold selectivity; for FS p-H3/OVISE: cellular p-H3 IC50 over OVISE IC50; for increased fold-selectivity SKOV-3/OVISE over Comparator C: (+) sign after FS SKOV-3/OVISE; for improvement in CDK2 OVISE cell potency over Comparator C: in brackets after OVISE IC50, Comparator C 5.5 μM
Procedure, shortened: as §1

[2] = molecular target: T1, Cyclin Dependent Kinase 1/Cyclin A2 (CDK1-cycA2) (Homo sapiens, UniProt P06493); assay: CDK1-cycA2 TR-FRET (Lance) enzyme assay; type: biochemical; conditions: Table O, enzymatic assay
T1 construct: purchased ProQinase 0134-0054-1
T1 sequence (P06493 whole entry): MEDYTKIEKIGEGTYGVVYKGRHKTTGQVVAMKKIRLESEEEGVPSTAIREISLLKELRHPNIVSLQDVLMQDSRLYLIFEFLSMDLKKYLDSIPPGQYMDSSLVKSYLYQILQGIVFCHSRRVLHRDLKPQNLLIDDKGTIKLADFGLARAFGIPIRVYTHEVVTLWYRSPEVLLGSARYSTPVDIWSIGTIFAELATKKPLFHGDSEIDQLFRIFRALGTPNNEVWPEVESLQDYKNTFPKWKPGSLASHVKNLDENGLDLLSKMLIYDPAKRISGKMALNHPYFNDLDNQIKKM
T1 sequence (P20248 whole entry partner): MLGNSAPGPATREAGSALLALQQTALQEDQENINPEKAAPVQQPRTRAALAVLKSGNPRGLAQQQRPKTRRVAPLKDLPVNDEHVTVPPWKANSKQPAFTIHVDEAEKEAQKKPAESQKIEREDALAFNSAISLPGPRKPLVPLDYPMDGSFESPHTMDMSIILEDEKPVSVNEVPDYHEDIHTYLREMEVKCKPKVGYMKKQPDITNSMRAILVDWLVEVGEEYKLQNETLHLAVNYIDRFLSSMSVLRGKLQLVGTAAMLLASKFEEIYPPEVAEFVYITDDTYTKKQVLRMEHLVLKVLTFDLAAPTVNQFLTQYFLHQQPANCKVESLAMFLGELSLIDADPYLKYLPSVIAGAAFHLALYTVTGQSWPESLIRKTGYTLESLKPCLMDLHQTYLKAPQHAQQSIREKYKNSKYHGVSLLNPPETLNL
Procedure, shortened: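 Human CDK1/cyclin A2 pre-incubated 30 min with compound dose responses in 50 mM HEPES pH 7.5, 10 mM MgCl2, 2 mM TCEP, 0.05% BGG, 0.01% Brij 35. Reaction quenched with EDTA (15 mM final); TR-FRET readout using Eu-anti-phospho-4E-BP1, acceptor/donor ratio. Inhibition constants from Morrison equation.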

[3] = molecular target: T2, Cyclin Dependent Kinase 4/Cyclin D3 (CDK4-cycD3) (Homo sapiens, UniProt P11802); assay: CDK4-cycD3 TR-FRET (LANCE) enzyme assay; type: biochemical; conditions: Table O, enzymatic assay
T2 construct: purchased Carna Biosciences 04-105
T2 sequence (P11802 whole entry): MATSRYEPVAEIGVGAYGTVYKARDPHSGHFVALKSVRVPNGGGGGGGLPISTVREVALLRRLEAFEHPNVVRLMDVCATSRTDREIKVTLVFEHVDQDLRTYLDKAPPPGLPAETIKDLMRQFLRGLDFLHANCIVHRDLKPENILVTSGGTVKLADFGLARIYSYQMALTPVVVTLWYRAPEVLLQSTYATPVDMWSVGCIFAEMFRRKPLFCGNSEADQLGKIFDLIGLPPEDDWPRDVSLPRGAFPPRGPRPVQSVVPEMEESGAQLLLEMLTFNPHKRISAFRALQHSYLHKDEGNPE
T2 sequence (P30281 whole entry partner): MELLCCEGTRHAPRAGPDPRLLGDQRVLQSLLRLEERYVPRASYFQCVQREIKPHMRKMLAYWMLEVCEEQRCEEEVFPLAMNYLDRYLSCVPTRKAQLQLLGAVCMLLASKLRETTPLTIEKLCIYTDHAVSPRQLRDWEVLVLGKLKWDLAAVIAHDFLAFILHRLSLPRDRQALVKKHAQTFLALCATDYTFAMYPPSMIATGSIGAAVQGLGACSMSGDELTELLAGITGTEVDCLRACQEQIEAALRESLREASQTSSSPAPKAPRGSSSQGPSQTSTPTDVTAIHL
Procedure, shortened: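 Compound dose responses pre-incubated 30 min with enzyme mix in 50 mM HEPES pH 7.5, 10 mM MgCl2, 2 mM TCEP, 0.05% BGG, 0.01% Brij 35. Reaction quenched with EDTA (15 mM final); Eu-anti-phospho-4E-BP1 TR-FRET detection, acceptor/donor ratio. Ki derived by Morrison equation.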

[4] = molecular target: T3, Cyclin Dependent Kinase 2/Cyclin E1 (CDK2-cycE1) (Homo sapiens, UniProt P24941); assay: CDK2-cycE1 TR-FRET (LANCE) enzyme assay; type: biochemical; conditions: for FS CDK1/CDK2 / FS CDK4/CDK2: fold selectivity; for increased fold-selectivity CDK4/CDK2 over Comparator C: (+) sign after FS CDK4/CDK2;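 for improvement in potency against CDK2 (Ki) over Comparator C: fold lower CDK2 Ki than comparator c (Ki 0.032 µM)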
T3 construct: purchased ProQinase 0050-0055-1
Procedure, shortened: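 Compound dose responses pre-incubated 30 min with CDK2-cycE1 in 50 mM HEPES pH 7.5, 10 mM MgCl2, 2 mM TCEP, 0.05% BGG, 0.01% Brij 35. Reaction quenched with EDTA (15 mM final), phospho-MBP detected by Eu-anti-phospho-MBP TR-FRET (acceptor/donor ratio). Inhibition constants from Morrison equation.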

[5] = Table O, cellular SKOV-3 IC50 over OVISE IC50
[6] = Table O, enzymatic assay, read-out: CDK2 Ki
[7] = Table O, enzymatic CDK1 Ki over CDK2 Ki
[8] = Table O, enzymatic CDK4 Ki over CDK2 Ki
[9] = Table Q, enzymatic assay, read-out: CDK2 Ki
[10] = read-out: CDK2 activity / potency (enzymatic assay)

Structure (SMILES) | pIC50 (SKOV-3 (ATCC HTB-77); SK-OV-3, Table O) | pIC50 (SKOV-3 (ATCC HTB-77); SK-OV-3, Table Q) | pIC50 (HCT116 cells) | pIC50 ([1]; Table O) | FS SKOV-3/OVISE [1, 5] | FS p-H3/OVISE ([1]; Table O) | increased fold-selectivity SKOV-3/OVISE over Comparator C ([1]; Table Q) | FS SKOV-3/OVISE ([1]; Table Q, cellular) | improvement in CDK2 OVISE cell potency over Comparator C ([1]; Table Q) | pKi [2] | pKi [3] | improvement in potency against CDK2 (Ki) over Comparator C [4] | pKi [4, 6] | FS CDK1/CDK2 [4, 7] | FS CDK4/CDK2 [4, 8] | increased fold-selectivity CDK4/CDK2 over Comparator C ([4]; Table Q) | pKi [4, 9] | FS CDK1/CDK2 ([4]; Table Q, enzymatic) | FS CDK4/CDK2 ([4]; Table Q, enzymatic) | pKi [4, 10] | other results
CC(C)NC(=O)O[C@@H]1CC[C@H](c2cc(Nc3ccnc(N)n3)n[nH]2)C1 [Example 2G, (1R,3S)-3-(3-((2-aminopyrimidin-4-yl)amino)-1H-pyrazol-5-yl)cyclopentyl isopropylcarbamate] | 5.00 | 5.00 | 6.55 | 6.55 | 36 | 1.0 | (+) (The (+) sign in Table Q signifies desirable increased fold-selectivity of the exemplary compounds over Comparator C) | 36 | 19.6 fold | 7.06 | 6.82 | 21 fold | 8.82 | 59 | 100 | (+) (The (+) sign in Table Q signifies desirable increased fold-selectivity of the exemplary compounds over Comparator C) | 8.82 | 59 | 100 |  | increased fold-selectivity CDK1/CDK2 over Comparator C ([4]; Table Q, (+) sign after FS CDK1/CDK2): (+) (The (+) sign in Table Q signifies desirable increased fold-selectivity of the exemplary compounds over Comparator C)
CNc1nccc(Nc2cc([C@H]3CC[C@@H](OC(=O)NC(C)C)C3)[nH]n2)n1 [Example 2H, (1R,3S)-3-(3-((2-(methylamino)pyrimidin-4-yl)amino)-1H-pyrazol-5-yl)cyclopentyl isopropylcarbamate] | 5.96 | 5.96 | 7.49 | 7.17 | 16 | 0.48 | (+) (The (+) sign in Table Q signifies desirable increased fold-selectivity of the exemplary compounds over Comparator C) | 16 | 82 fold | 8.12 | 7.74 | 114 fold | 9.55 | 27 | 64 | (+) (The (+) sign in Table Q signifies desirable increased fold-selectivity of the exemplary compounds over Comparator C) | 9.55 | 27 | 64 | ≥ 9.00 | 
CCn1nc(Nc2cc([C@H]3CC[C@@H](OC(=O)NC(C)C)C3)[nH]n2)ccc1=O [Example 2HH, (1R,3S)-3-(3-((1-ethyl-6-oxo-1,6-dihydropyridazin-3-y1)amino)-1H-pyrazol-5-y1)cyclopenty1 isopropylcarbamate] | 5.34 |  | 7.49 | 7.22 | 77 | 0.53 |  |  |  | 8.16 | 6.68 |  | 9.37 | 16 | 490 |  |  |  |  |  | 
CC(C)NC(=O)O[C@@H]1CC[C@H](c2cc(Nc3ccnc(N(C)C)n3)n[nH]2)C1 [Example 2I, (1R,3S)-3-(3-((2-(dimethylamino)pyrimidin-4-yl)amino)-1H-pyrazol-5-yl)cyclopentyl isopropylcarbamate] | 6.00 | 6.00 | 8.03 | 7.17 | 15 | 0.14 | (+) (The (+) sign in Table Q signifies desirable increased fold-selectivity of the exemplary compounds over Comparator C) | 15 | 82 fold | 8.22 | 7.57 | 103 fold | 9.51 | 19 | 87 | (+) (The (+) sign in Table Q signifies desirable increased fold-selectivity of the exemplary compounds over Comparator C) | 9.51 | 19 | 87 | ≥ 9.00 | 
Cc1cncc(Nc2cc([C@H]3CC[C@@H](OC(=O)NC(C)C)C3)[nH]n2)c1 [Example 2K, (1R,3S)-3-(3-((5-methylpyridin-3-yl)amino)-1H-pyrazol-5-yl)cyclopentyl isopropylcarbamate] | 5.11 | 5.11 | 7.06 | 6.72 | 41 | 0.46 | (+) (The (+) sign in Table Q signifies desirable increased fold-selectivity of the exemplary compounds over Comparator C) | 41 | 28.9 fold | 7.23 | 6.47 | 10 fold | 8.49 | 18 | 110 | (+) (The (+) sign in Table Q signifies desirable increased fold-selectivity of the exemplary compounds over Comparator C) | 8.49 | 18 | 110 |  | 
CC(C)NC(=O)O[C@@H]1CC[C@H](c2cc(Nc3ccnc(C(F)(F)F)n3)n[nH]2)C1 [Example 2L, (1R,3S)-3-(3-((2-(trifluoromethyl)pyrimidin-4-yl)amino)-1H-pyrazol-5-yl)cyclopentyl isopropylcarbamate] | 6.19 | 6.19 | 8.74 | 7.92 | 53 | 0.15 | (+) (The (+) sign in Table Q signifies desirable increased fold-selectivity of the exemplary compounds over Comparator C) | 53 | 458 fold | 8.54 | 6.96 | 188 fold | 9.77 | 17 | 650 | (+) (The (+) sign in Table Q signifies desirable increased fold-selectivity of the exemplary compounds over Comparator C) | 9.77 | 17 | 650 |  | 
